Measurements as given in US20260207614A1, “IRAK4 DEGRADERS AND USES THEREOF” (Kymera Therapeutics, Inc., priority 2022, published 2026).
“Also recorded” adds a separate entry of the source. Read-outs that look alike come from different tables or passages of the source.

Tests used:
[1] = target: CYP2C19 (Homo sapiens, UniProt P33261); assay: In vitro drug-drug interaction study, CYP2C19; assay type: in vitro ADME
From the text: Metabolites generated in liver microsomes from humans were also detected in those from rat, dog, and monkey. In the in vitro drug-drug interaction studies.

[2] = system: R848 (TLR7)-stimulated cytokine induction in whole blood; assay: Phase 1 SAD ex vivo R848-stimulated cytokine induction in whole blood; set-up: species or system human
[3] = Phase 1 SAD safety and tolerability; assay type: in vivo, human
From the text: Part A: Part A is a double-blind, randomized, placebo-controlled, SAD, sequential group study in 56 adult HVs, divided in 7 cohorts of eight HVs each. Seven ascending single doses (1 dose level per cohort) will be investigated. One or more additional cohorts may be added, as needed.
• Treatment-emergent (serious) adverse events ([S]AEs) • Concomitant medication • Clinical laboratory tests • Hematology • Coagulation • Chemistry • Urinalysis and urine microscopy • Vital signs • Pulse Rate (bpm) • Systolic blood pressure (BP) (mm Hg) • Diastolic BP (mm Hg) • Respiratory rate • Temperature • Safety electrocardiogram and Holter monitoring • Heart Rate (bpm). PR, QRS, QT, QTcF
All data will be fully listed.

[4] = Distribution studies in rats; assay type: in vivo
From the text: In in vivo pharmacokinetic (PK) studies conducted in rats, dogs, and monkeys.

[5] = Phase 1 MAD plasma PK in healthy volunteers; assay type: in vivo, human; conditions: for Ctrough / AUC: Day 14, geometric mean (% CV); for AUC / Tmax / Cmax: human, plasma, oral; for AUC: read-out: AUC24; for Tmax: Day 14, median (range); for Cmax: Day 14 steady state, geometric mean (% CV)
Procedure: The selection of Compound A doses will be guided by the safety, tolerability, and PK data in humans from the SAD portion of the study. […] Increasing dose levels in subsequent MAD cohorts will be identified based on the safety and PK observed in the previous SAD and MAD cohorts. Dose escalation between each MAD cohort will not exceed 100%.
However, the dosing interval and the duration of dosing may change following review of the safety, PK, and PD data from Part A.
A MAD5 cohort was added including five twice-weekly doses of 200 mg.
Geometric Mean (% CV) reported for all parameters, except tmax where median (range) are presented. Accumulation Ratio represents fold change in exposure from Day 1 to Day 14.

[6] = R848, whole blood, 24-48 hours, Cohort 7
[7] = blinded SAD, study treatment related, per Investigator

Chain of CYP2C19 (P33261 whole entry): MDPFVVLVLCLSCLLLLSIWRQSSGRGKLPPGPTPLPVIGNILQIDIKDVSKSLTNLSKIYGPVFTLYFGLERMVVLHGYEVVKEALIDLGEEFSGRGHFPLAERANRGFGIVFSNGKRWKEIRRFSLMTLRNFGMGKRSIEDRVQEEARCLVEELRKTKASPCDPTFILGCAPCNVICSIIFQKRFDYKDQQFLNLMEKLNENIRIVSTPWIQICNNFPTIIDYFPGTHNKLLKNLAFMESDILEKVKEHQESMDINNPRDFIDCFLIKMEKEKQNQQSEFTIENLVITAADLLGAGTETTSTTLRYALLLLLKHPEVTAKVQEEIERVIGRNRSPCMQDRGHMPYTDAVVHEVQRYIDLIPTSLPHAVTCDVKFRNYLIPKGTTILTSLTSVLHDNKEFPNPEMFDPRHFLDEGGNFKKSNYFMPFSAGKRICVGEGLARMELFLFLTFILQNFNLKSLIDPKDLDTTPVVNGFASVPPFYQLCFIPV

## Cn1c(=O)n([C@@H]2CCC(=O)NC2=O)c2cccc(C#CCOC3CCN(C[C@H]4CC[C@H](n5cc(NC(=O)c6cnn7ccc(N8C[C@H]9C[C@@H]8CO9)nc67)c(C(F)F)n5)CC4)CC3)c21 [Compound A, 5-((1R,4R)-2-oxa-5-azabicyclo[2.2.1]heptan-5-yl)-N-(3-(difluoromethyl)-1-((1r,4R)-4-((4-((3-(1-(2,6-dioxopiperidin-3-yl)-3-methyl-2-oxo-2,3-dihydro-1H-benzo[d]imidazol-4-yl)prop-2-yn-1-yl)oxy)piperidin-1-yl)methyl)cyclohexyl)-1H-pyrazol-4-yl)pyrazolo[1,5-a]pyrimidine-3-carboxamide]
[1]
  time dependent inhibition (TDI) of CYP2C19: potential time dependent inhibition (TDI)
[2]; [6]
  Mean Maximum Percent Change from Baseline in ex vivo IFNγ induction: −97%^2
  Mean Maximum Percent Change from Baseline in ex vivo IL1β induction: −92%^1
  Mean Maximum Percent Change from Baseline in ex vivo IL6 induction: −88%^1
  Mean Maximum Percent Change from Baseline in ex vivo IL8 induction: −54%^
  Mean Maximum Percent Change from Baseline in ex vivo IL10 induction: −89%^1
  Mean Maximum Percent Change from Baseline in ex vivo IL12 induction: −93%^1
  Mean Maximum Percent Change from Baseline in ex vivo IL17 induction: −79%^1
  Mean Maximum Percent Change from Baseline in ex vivo TNFα induction: −88%^2
[2]; SAD, R848- or LPS-mediated induction, whole blood, 24-48 h post-dose
  mean maximum ex vivo cytokine inhibition: up to 97%
[2]; SAD, whole blood, maxima across cytokines
  inhibition of R848 or LPS induction of 8 different pro-inflammatory cytokines: 79-97%
[3]; Cohort SAD 5
  Abdominal pain, Severity: Mild
  Diarrhea, Severity: Mild
  Headache, Severity: Mild (x2)
  Palpitations, Severity: Mild
[3]; Cohort SAD 5, SAD 5 FE, SAD 6
  Headache, Severity: Moderate (x3)
[3]; Cohort SAD 5 FE
  Diarrhea, Severity: Mild
  Nausea, Severity: Mild
  Vomiting, Severity: Mild (x2)
[3]; Cohort SAD 6
  Muscle weakness, Severity: Mild
  Myalgia, Severity: Mild
  Nausea, Severity: Mild (x2)
[3]; SAD
  ECG changes: No significant ECG changes
  QTcF prolongation: no clinically significant QTcF prolongation
  serious adverse events: no serious adverse events; also recorded: No SAEs
[3]; SAD 5, n=1, resolution ~Day 21
  AST elevation: 3.8 ×ULN
[3]; SAD 5, n=1, slow resolution to baseline
  ALT elevation: 2.5 ×ULN
[3]; [7]
  Abdominal pain, #AEs (subjects): 1
  Diarrhea, #AEs (subjects): 2 (2)
  Headache, #AEs (subjects): 5 (4)
  Muscle weakness, #AEs (subjects): 1
  Myalgia, #AEs (subjects): 1
  Nausea, #AEs (subjects): 3 (3)
  Palpitations, #AEs (subjects): 1
  Vomiting, #AEs (subjects): 2 (1)
[3]; single doses, healthy volunteers
  safety and tolerability: safe and well-tolerated
[4]
  penetration into the central nervous system (CNS): limited penetration
  tissue distribution: extensively distributed into tissues
[5]; 25 mg QD
  Ctrough: 5.03 (30.3) ng/mL
  AUC: 153 ng·h/mL
  Tmax: 8 h
  Cmax: 8.2 ng/mL
[5]; 50 mg QD
  Ctrough: 7.28 (35.1) ng/mL
  AUC: 224 ng·h/mL
  Tmax: 8 h
  Cmax: 12 ng/mL
[5]; 100 mg QD
  Ctrough: 9.81 (30.1) ng/mL
[5]; 200 mg QD
  Ctrough: 18.8 (32.6) ng/mL
[5]; MAD, once daily
  day of dosing by which steady-state plasma levels reached: ≤ 7 days
